Assay results reported in publication PMC7251097, “Aspartate/asparagine-β-hydroxylase: a high-throughput mass spectrometric assay for discovery of small molecule inhibitors” (Scientific Reports, 2020).
Structures can show the parent of a compound that is named as a salt. Where two headings read alike, the source gives them in different places.

Molecular target: T1, His6-AspH315–758 (human aspartate/asparagine-β-hydroxylase, AspH) (Homo sapiens, UniProt Q12797)
T1 construct: N-Terminally His6-tagged human AspH315–758 (His6-AspH315–758) was produced in E. coli BL21 (DE3) cells; made in house; host or cells: E. coli BL21 (DE3), pET-28a(+) vector
T1 sequence (Q12797 315-758): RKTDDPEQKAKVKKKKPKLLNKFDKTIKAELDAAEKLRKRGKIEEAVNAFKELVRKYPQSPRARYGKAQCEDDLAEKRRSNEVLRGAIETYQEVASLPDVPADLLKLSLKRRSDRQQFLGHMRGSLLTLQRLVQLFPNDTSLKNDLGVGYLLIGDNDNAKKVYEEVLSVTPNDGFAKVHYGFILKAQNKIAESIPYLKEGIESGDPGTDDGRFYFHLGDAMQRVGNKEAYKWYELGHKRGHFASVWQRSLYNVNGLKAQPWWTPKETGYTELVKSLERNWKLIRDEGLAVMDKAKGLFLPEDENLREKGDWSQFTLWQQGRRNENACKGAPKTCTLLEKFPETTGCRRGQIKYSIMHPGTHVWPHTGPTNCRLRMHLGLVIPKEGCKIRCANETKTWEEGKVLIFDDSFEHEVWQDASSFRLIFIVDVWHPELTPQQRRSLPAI
Experiment: SPE-MS AspH inhibition assay (LOPAC screen at fixed 20 μM and IC50 dose-response), hydroxylation of cyclic peptide hFX-CP101–119
Assay type: biochemical
Details: for Plate 1 (% inhibition): plate 1, normalised to DMSO and 2,4-PDCA controls

[1] = LOPAC Plate 4, compound at 20 uM, substrate conversion
[2] = LOPAC Plate 4, compound at 20 uM, read-out: % inhibition
[3] = LOPAC compound at fixed 20 uM, substrate conversion, plate 1
[4] = LOPAC compound at 20uM, conversion of substrate peptide
[5] = LOPAC Plate 4, compound at 20 uM
[6] = LOPAC compound at 20uM, plate 2, normalised to DMSO and 2,4-PDCA controls

CC(C)c1cccc(C(C)C)c1O [Propofol]
Plate 2 (% conversion): 38.08%
inhibition at 20 µM (read-out: Plate 2 (% inhibition)): -6.34%

C=CC1=C(C)c2cc3[nH]c(cc4nc(cc5[nH]c(cc1n2)c(C)c5CCC(=O)O)C(CCC(=O)O)=C4C)c(C)c3C=C [Protoporphyrin IX disodium]
% conversion [1]: 20.78%
inhibition at 20 µM [2]: 46%

CNCCCC1c2ccccc2C=Cc2ccccc21 [Protriptyline hydrochloride]
% conversion [1]: 29.36%
inhibition at 20 µM [2]: 20.8%

O=c1ccc2c(OCCCCc3ccccc3)c3ccoc3cc2o1 [Psora-4]
Plate 1 (% inhibition) (LOPAC compound at fixed 20 uM): 4.97%
Plate 1 (% conversion) [3]: 34.20%

NCCCCN [Putrescine dihydrochloride]
% conversion [1]: 39.89%
inhibition at 20 µM [2]: -10%

NC(=O)c1cnccn1 [Pyrazinecarboxamide]
% conversion [1]: 32.31%

CN(C)C(=O)Oc1ccc[n+](C)c1 [Pyridostigmine bromide]
% conversion: 37.84%

COc1ccc(CN(CCN(C)C)c2ccccn2)cc1 [Pyrilamine maleate]
Plate 3 (% conversion) [4]: 36.13%

Oc1ccccc1O [Pyrocatechol]
Plate 1 (% conversion): 10.12%
Plate 1 (% inhibition) (LOPAC compound at fixed 20 uM): 76.68%

C[C@@H]1C(=O)NC2=Nc3cccc(Cl)c3CN21 [Quazinone]
% conversion [1]: 40.20%
inhibition at 20 µM [2]: -10.9%

CCN(CC)CCCC(C)Nc1c2ccc(Cl)cc2nc2ccc(OC)cc12 (stereo not drawn) [Quinacrine dihydrochloride]
% conversion [1]: 39.58%
inhibition at 20 µM [2]: -9.1%

CCCN1CCC[C@@H]2Cc3nc(N)ncc3C[C@H]21.Cl.Cl [Quinelorane dihydrochloride]
% conversion [1]: 33.91%

C=C[C@H]1C[N@@]2CC[C@H]1C[C@@H]2[C@@H](O)c1ccnc2ccc(OC)cc12 [Quinidine sulfate]
% conversion [1]: 33.25%

C=C[C@H]1C[N@@]2CC[C@H]1C[C@H]2[C@H](O)c1ccnc2ccc(OC)cc12 [Quinine sulfate]
% conversion [1]: 30.14%

O=C(O)c1cccnc1C(=O)O [Quinolinic acid]
% conversion [1]: 7.93%
inhibition at 20 µM [2]: 83.6%

O=C(O)/C=C\C(=O)O.O=[N+]([O-])c1ccc2nc(N3CCNCC3)ccc2c1 [Quipazine, 6-nitro-, maleate]
% conversion [1]: 31.15%

CCCN1CCC[C@H](c2cccc(O)c2)C1.Cl [R(+)-3PPP hydrochloride]
% inhibition [5]: 3.51%
% conversion [1]: 35.27%

Br.C=CCN1CCc2c(cc(O)c(O)c2Br)[C@@H](c2ccccc2)C1 [R(+)-6-Bromo-APB hydrobromide, reference compound]
Inhibition at 20 µM [%] (AspH activity, fixed compound concentration 20 μM, initial LOPAC screen, 0.5%v/v DMSO): 95.0%
Plate 1 (% inhibition) (LOPAC compound at fixed 20 uM): 95.00%
Plate 1 (% conversion) [3]: 3.97%

C[C@@]1(C2CCCC2)Cc2cc(OCC(=O)O)c(Cl)c(Cl)c2C1=O [R(+)-IAA-94]
Plate 3 (% conversion) [4]: 30.54%

CN1CCc2cc(Cl)c(O)cc2[C@@H](c2ccccc2)C1.Cl [R(+)-SCH-23390 hydrochloride]
Plate 2 (% inhibition) [6]: -3.60%

CC(C)NC[C@H](O)c1ccc(O)c(O)c1.O=C(O)C(O)C(O)C(=O)O [R(-)-Isoproterenol (+)-bitartrate]
Plate 2 (% conversion) (LOPAC compound at 20uM, plate 2, conversion of substrate peptide): 5.85%
Plate 2 (% inhibition) [6]: 89.92%

CCCN1CCc2cccc3c2[C@H]1Cc1ccc(O)c(O)c1-3.Cl [R(-)-Propylnorapomorphine hydrochloride]
Plate 2 (% conversion): 7.83%
Plate 2 (% inhibition) (20 µM): 84.00%

Br.CCCN(CCC)[C@@H]1CCc2cccc(O)c2C1 [R-(+)-8-Hydroxy-DPAT hydrobromide]
Plate 2 (% conversion): 39.31%
Plate 2 (% inhibition) [6]: -10.03%

C#CCN[C@H](C)Cc1ccccc1.Cl [R-(-)-Desmethyldeprenyl hydrochloride]
Plate 2 (% conversion): 39.05%
Plate 2 (% inhibition) (20 µM): -9.24%

COC1(C2=NCCN2)COc2ccccc2O1.Cl (stereo not drawn) [RX 821002 hydrochloride]
% inhibition [5]: -13.78%
% conversion [1]: 41.17%

O=C(c1ccc(OCCN2CCCCC2)cc1)c1c(-c2ccc(O)cc2)sc2cc(O)ccc12 [Raloxifene hydrochloride]
% conversion [1]: 40.15%
inhibition at 20 µM [2]: -10.8%

CNC(=C[N+](=O)[O-])NCCSCc1ccc(CN(C)C)o1 [Ranitidine hydrochloride]
% conversion [1]: 37.20%
inhibition at 20 µM [2]: -2.13%

COc1ccccc1OCC(O)CN1CCN(CC(=O)Nc2c(C)cccc2C)CC1 (stereo not drawn) [Ranolazine dihydrochloride]
% conversion [1]: 41.52%
inhibition at 20 µM [2]: -14.8%

Nc1c(S(=O)(=O)O)cc(Nc2ccc(Nc3nc(Cl)nc(Nc4cccc(S(=O)(=O)O)c4)n3)c(S(=O)(=O)O)c2)c2c1C(=O)c1ccccc1C2=O [Reactive Blue 2, reference compound]
% conversion: 3.94%
inhibition at 20 µM: 95.3%
inhibition at 20 µM (read-out: Inhibition at 20 µM [%]): 95.3%
